Assay results as given in US7728174B2, “Continuous hydrogenation processes for the preparation of xylylenediamines” (BASF SE, priority 2005, dated 2010).

Experiment: solubility of IPN in ammonia, meta-xylylenediamine and their mixtures
Assay type: physicochemical

N#Cc1cccc(C#N)c1 [IPN, 1,3-dicyanobenzene]
solubility of IPN in the mixture (Example 1 mixture: 178 g/h circulation stream [13] and 94 g/h fresh ammonia, at 60° C.): about 30 % by weight
solubility of IPN in the mixture (Example 2 mixture: 320 g/h circulation stream [13] and 40 g/h fresh ammonia, at 60° C.): about 25 % by weight
solubility of IPN (in MXDA, at 70° C.): approx. 20 % by weight
solubility of IPN (in NH3, at 60° C.): approx. 44 % by weight
solubility of IPN (in a mixture of approximately equal parts by mass of meta-xylylenediamine and liquid ammonia, at 60° C.): approx. 30 % by weight
solubility of IPN (in meta-xylylenediamine, at 60° C.): approx. 15 % by weight
